# Data reported in ChEMBL document CHEMBL1139746, “Enzyme inhibition potency enhancement by active site metal chelating and hydrogen bonding induced conformation-restricted cyclopropanecarbonyl derivatives” (Bioorg Med Chem Lett, 2006).
# Assays:
# [1] = target: 4-hydroxyphenylpyruvate dioxygenase (Sus scrofa, UniProt Q02110); test: Inhibition of pig HPPD
# [2] = target: Dihydroorotate dehydrogenase (quinone), mitochondrial (Rattus norvegicus, UniProt Q63707); test: Inhibition of rat DHODH
# Sequence of Dihydroorotate dehydrogenase (quinone), mitochondrial (Q63707 whole entry): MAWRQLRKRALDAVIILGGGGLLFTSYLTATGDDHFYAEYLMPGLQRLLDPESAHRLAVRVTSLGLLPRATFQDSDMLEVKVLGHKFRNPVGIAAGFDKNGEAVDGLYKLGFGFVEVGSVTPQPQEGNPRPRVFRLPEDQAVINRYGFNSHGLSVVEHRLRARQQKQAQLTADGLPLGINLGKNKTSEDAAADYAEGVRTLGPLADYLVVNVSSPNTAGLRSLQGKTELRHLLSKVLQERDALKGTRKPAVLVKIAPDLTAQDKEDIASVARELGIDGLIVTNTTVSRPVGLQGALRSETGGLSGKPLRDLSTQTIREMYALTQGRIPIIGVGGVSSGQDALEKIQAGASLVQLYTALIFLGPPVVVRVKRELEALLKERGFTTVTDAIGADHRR
# Sequence of 4-hydroxyphenylpyruvate dioxygenase (Q02110 whole entry): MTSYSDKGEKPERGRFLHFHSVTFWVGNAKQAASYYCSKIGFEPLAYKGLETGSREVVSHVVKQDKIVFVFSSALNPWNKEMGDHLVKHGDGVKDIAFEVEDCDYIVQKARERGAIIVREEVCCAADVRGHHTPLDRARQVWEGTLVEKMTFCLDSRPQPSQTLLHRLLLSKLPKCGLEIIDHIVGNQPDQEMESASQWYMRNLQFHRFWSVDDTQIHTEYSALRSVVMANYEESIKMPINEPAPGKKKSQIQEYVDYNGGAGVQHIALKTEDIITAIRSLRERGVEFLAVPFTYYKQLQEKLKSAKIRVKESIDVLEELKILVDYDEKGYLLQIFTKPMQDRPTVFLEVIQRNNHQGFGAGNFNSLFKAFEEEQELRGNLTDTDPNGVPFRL
Compound,IC50 [1],IC50 [2]
O=C1CCCC(O)=C1C(=O)C1CCC1,21 µM,–
O=C(c1c(O)c2ccccc2oc1=O)C1CC1,322 µM,–
CC(C)/C(O)=C(\C#N)C(=O)Nc1ccc(C(F)(F)F)cc1,–,0.295 µM
O=C1CCCC(O)=C1C(=O)C1CCCC1,33.1 µM,–
